According to US20190216761A1, “COMPOSITIONS COMPRISING 15-HEPE AND METHODS OF USING THE SAME” (Afimmune Limited, priority 2015, published 2019):
Substitutions are numbered along the chain they refer to. Marks after values point to notes of the source that are not given here.

What was measured:
Format in all cases: cell-based
[1] = biological target: T1, hPPARδ (Homo sapiens, UniProt Q03181); test: PPAR agonist reporter assay (Gal4 hybrid receptor, luciferase)
T1 construct: expressed in transfected cells
T1 sequence (Q03181 211-439 limits assumed): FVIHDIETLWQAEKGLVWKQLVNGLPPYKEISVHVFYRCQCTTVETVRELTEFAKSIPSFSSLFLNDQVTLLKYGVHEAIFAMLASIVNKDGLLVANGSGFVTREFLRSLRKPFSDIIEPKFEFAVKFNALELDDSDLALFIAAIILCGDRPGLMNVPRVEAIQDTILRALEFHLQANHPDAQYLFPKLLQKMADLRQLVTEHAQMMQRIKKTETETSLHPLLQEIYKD
Experimental: (§1) This study utilized proprietary reporter cells expressing a hybrid receptor comprising the N-terminal Gal4 DNA binding domain fused to the ligand binding domain of the specific human nuclear receptor (hPPARα, hPPARδ, and hPPARγ) and rat nuclear receptor (rPPARα, rPPARδ, and rPPARγ). The reporter vectors used in this Example comprise the firefly luciferase gene functionally linked to the Gal4 upstream activation sequence.
(§2) Nuclear Receptor assay was performed by dispensing 100 μL of a suspension of Reporter Cells in Cell Recovery Medium (CRM) containing 10% charcoal stripped FBS into each well of a white 96-well plate. Test compounds were diluted using compound screening medium (CSM) containing 10% charcoal stripped FBS to generate “2×-concentration” treatment media. Immediately after this dilution step, 100 μL of each diluted 2×-concentration treatment medium was dispensed (in triplicate) into the Reporter Cell-containing assay wells.
(§3) After incubation at 37° C. for 24 hours, the treatment media was discarded. 100 μL of Luciferase Detection Reagent substrate was added to each well and RLUs were quantified from each well to determine nuclear receptor activities.

[2] = biological target: T2, hPPARγ (Homo sapiens, UniProt P37231); test: as above
T2 construct: expressed in transfected cells
T2 sequence (P37231 238-503 limits assumed): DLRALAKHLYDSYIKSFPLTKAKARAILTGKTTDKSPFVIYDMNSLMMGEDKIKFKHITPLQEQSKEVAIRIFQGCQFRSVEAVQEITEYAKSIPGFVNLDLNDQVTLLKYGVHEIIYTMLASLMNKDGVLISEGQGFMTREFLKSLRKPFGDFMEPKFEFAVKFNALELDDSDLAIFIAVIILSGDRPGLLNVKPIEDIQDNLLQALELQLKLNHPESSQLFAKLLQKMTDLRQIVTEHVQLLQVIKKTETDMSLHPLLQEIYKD
Experimental: as §1, §2, §3

[3] = biological target: T3, rPPARα (Rattus norvegicus, UniProt P37230); test: as above
T3 construct: expressed in transfected cells
T3 sequence (P37230 239-466 limits assumed): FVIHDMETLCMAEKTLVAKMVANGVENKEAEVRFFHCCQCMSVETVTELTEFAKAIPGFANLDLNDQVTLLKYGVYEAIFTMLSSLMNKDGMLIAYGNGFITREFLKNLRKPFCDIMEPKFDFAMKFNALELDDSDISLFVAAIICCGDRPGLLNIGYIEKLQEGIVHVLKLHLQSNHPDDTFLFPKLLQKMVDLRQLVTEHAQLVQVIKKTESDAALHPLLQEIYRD
Experimental: as §1, §2, §3

[4] = biological target: T4, rPPARγ (Rattus norvegicus, UniProt O88275); test: as above
T4 construct: expressed in transfected cells
T4 sequence (O88275 238-503 limits assumed): T2 sequence (P37231 238-503 limits assumed) with S93N, V98I, L226V, Q245H
Experimental: as §1, §2, §3

[5] = biological target: T1, hPPARδ; test: PPAR antagonist reporter assay (reference agonist at EC80); conditions: for inhibition of human PPARs (in words), hPPARδ: at higher test concentrations
Experimental: as §1
Nuclear Receptor assay was performed by suspending Reporter Cells in CRM containing 10% charcoal stripped FBS. 2×-EC80 concentrations of the appropriate reference agonist were then added to the Reporter Cell suspension, and 100 μL of the mixture dispensed into wells of a white 96-well plate. Test compounds were diluted using compound screening medium (CSM) containing 10% charcoal stripped FBS to generate “2×-concentration” treatment media. Immediately after this dilution step, 100 μL of each diluted 2×-concentration treatment medium was dispensed (in triplicate) into the Reporter Cell-containing assay wells.
After incubation at 37° C. for 24 hours, the treatment media was discarded. Each well was rinsed once with LCM Buffer; LCM substrate was then added. After incubation for 30 minutes at 37° C., fluorescence was measured to determine the relative number of live cells per assay well. LCM substrate was then discarded and 100 μL of Luciferase Detection Reagent substrate was added to each well. RLUs were quantified from each well to determine nuclear receptor activities.

[6] = at low to higher doses in the dose response curve
[7] = at medium to higher doses in the dose response curve

CC/C=C\C[C@H](O)/C=C/C=C\C/C=C\C/C=C\CCCC(=O)OCC [15-HEPE-EE, 15-HEPE ethyl ester]
Fold-Activation (vs. 0.10% DMSO) hPPAR-δ ([1]; 137 nM): 1.4 fold
Fold-Activation (vs. 0.10% DMSO) hPPAR-δ ([1]; 412 nM): 2.1* fold
Fold-Activation (vs. 0.10% DMSO) hPPAR-δ ([1]; 1,235 nM): 2.1* fold
Fold-Activation (vs. 0.10% DMSO) hPPAR-δ ([1]; 3,704 nM): 2.4* fold
Fold-Activation (vs. 0.10% DMSO) hPPAR-δ ([1]; 11,111 nM): 5.6* fold
Fold-Activation (vs. 0.10% DMSO) hPPAR-δ ([1]; 33,333 nM): 4.1* fold
Fold-Activation (vs. 0.10% DMSO) hPPAR-δ ([1]; 100,000 nM): 8.0* fold
Fold-Activation (vs. 0.10% DMSO) hPPAR-δ ([1]; 300,000 nM): 0.073 fold
agonism activity against human PPARδ (in words) [1, 6]: moderate agonism activity
Fold-Activation (vs. 0.10% DMSO) hPPAR-γ ([2]; 137 nM): 1.0 fold
Fold-Activation (vs. 0.10% DMSO) hPPAR-γ ([2]; 412 nM): 1.1 fold
Fold-Activation (vs. 0.10% DMSO) hPPAR-γ ([2]; 1,235 nM): 1.3 fold
Fold-Activation (vs. 0.10% DMSO) hPPAR-γ ([2]; 3,704 nM): 1.5 fold
Fold-Activation (vs. 0.10% DMSO) hPPAR-γ ([2]; 11,111 nM): 2.1* fold
Fold-Activation (vs. 0.10% DMSO) hPPAR-γ ([2]; 33,333 nM): 3.6* fold
Fold-Activation (vs. 0.10% DMSO) hPPAR-γ ([2]; 100,000 nM): 6.1* fold
Fold-Activation (vs. 0.10% DMSO) hPPAR-γ ([2]; 300,000 nM): 0.027 fold
agonism activity against human PPARγ (in words) [2, 6]: moderate agonism activity
Fold-Activation (vs. 0.10% DMSO) rPPAR-α ([3]; 137 nM): 1.1 fold
Fold-Activation (vs. 0.10% DMSO) rPPAR-α ([3]; 412 nM): 1.2 fold
Fold-Activation (vs. 0.10% DMSO) rPPAR-α ([3]; 1,235 nM): 1.2 fold
Fold-Activation (vs. 0.10% DMSO) rPPAR-α ([3]; 3,704 nM): 1.4 fold
Fold-Activation (vs. 0.10% DMSO) rPPAR-α ([3]; 11,111 nM): 1.7 fold
Fold-Activation (vs. 0.10% DMSO) rPPAR-α ([3]; 33,333 nM): 2.6* fold
Fold-Activation (vs. 0.10% DMSO) rPPAR-α ([3]; 100,000 nM): 1.4 fold
Fold-Activation (vs. 0.10% DMSO) rPPAR-α ([3]; 300,000 nM): 0.068 fold
agonism activity against rat PPARα (in words) [3, 7]: mild to moderate agonism activity
Fold-Activation (vs. 0.10% DMSO) rPPAR-γ ([4]; 137 nM): 1.2 fold
Fold-Activation (vs. 0.10% DMSO) rPPAR-γ ([4]; 412 nM): 1.2 fold
Fold-Activation (vs. 0.10% DMSO) rPPAR-γ ([4]; 1,235 nM): 1.4 fold
Fold-Activation (vs. 0.10% DMSO) rPPAR-γ ([4]; 3,704 nM): 1.4 fold
Fold-Activation (vs. 0.10% DMSO) rPPAR-γ ([4]; 11,111 nM): 1.8 fold
Fold-Activation (vs. 0.10% DMSO) rPPAR-γ ([4]; 33,333 nM): 3.5* fold
Fold-Activation (vs. 0.10% DMSO) rPPAR-γ ([4]; 100,000 nM): 10* fold
Fold-Activation (vs. 0.10% DMSO) rPPAR-γ ([4]; 300,000 nM): 14* fold
agonism activity against rat PPARγ (in words) [4, 7]: mild to moderate agonism activity
% Inhibition of agonist-stimulated receptor activity vs. 0.10% DMSO, hPPAR-δ ([5]; 137 nM): 0.68%
% Inhibition of agonist-stimulated receptor activity vs. 0.10% DMSO, hPPAR-δ ([5]; 412 nM): −7.7%
% Inhibition of agonist-stimulated receptor activity vs. 0.10% DMSO, hPPAR-δ ([5]; 1,235 nM): −11%
% Inhibition of agonist-stimulated receptor activity vs. 0.10% DMSO, hPPAR-δ ([5]; 3,704 nM): −10%
% Inhibition of agonist-stimulated receptor activity vs. 0.10% DMSO, hPPAR-δ ([5]; 11,111 nM): −10%
% Inhibition of agonist-stimulated receptor activity vs. 0.10% DMSO, hPPAR-δ ([5]; 33,333 nM): 1.6%
% Inhibition of agonist-stimulated receptor activity vs. 0.10% DMSO, hPPAR-δ ([5]; 100,000 nM): 29%
% Inhibition of agonist-stimulated receptor activity vs. 0.10% DMSO, hPPAR-δ ([5]; 300,000 nM): 100%
inhibition of human PPARs (in words), hPPARδ [5]: apparent inhibition

CC/C=C\C/C=C\C/C=C\C/C=C\C/C=C\CCCC(=O)OCC [EPA-EE, EPA ethyl ester, reference compound]
Fold-Activation (vs. 0.10% DMSO) hPPAR-δ ([1]; 137 nM): 1.2 fold
Fold-Activation (vs. 0.10% DMSO) hPPAR-δ ([1]; 412 nM): 1.2 fold
Fold-Activation (vs. 0.10% DMSO) hPPAR-δ ([1]; 1,235 nM): 1.3 fold
Fold-Activation (vs. 0.10% DMSO) hPPAR-δ ([1]; 3,704 nM): 1.5 fold
Fold-Activation (vs. 0.10% DMSO) hPPAR-δ ([1]; 11,111 nM): 1.4 fold
Fold-Activation (vs. 0.10% DMSO) hPPAR-δ ([1]; 33,333 nM): 1.8 fold
Fold-Activation (vs. 0.10% DMSO) hPPAR-δ ([1]; 100,000 nM): 2.6* fold
Fold-Activation (vs. 0.10% DMSO) hPPAR-δ ([1]; 300,000 nM): 3.8* fold
Fold-Activation (vs. 0.10% DMSO) hPPAR-γ ([2]; 137 nM): 0.90 fold
Fold-Activation (vs. 0.10% DMSO) hPPAR-γ ([2]; 412 nM): 0.94 fold
Fold-Activation (vs. 0.10% DMSO) hPPAR-γ ([2]; 1,235 nM): 0.94 fold
Fold-Activation (vs. 0.10% DMSO) hPPAR-γ ([2]; 3,704 nM): 0.88 fold
Fold-Activation (vs. 0.10% DMSO) hPPAR-γ ([2]; 11,111 nM): 1.0 fold
Fold-Activation (vs. 0.10% DMSO) hPPAR-γ ([2]; 33,333 nM): 0.78 fold
Fold-Activation (vs. 0.10% DMSO) hPPAR-γ ([2]; 100,000 nM): 1.2 fold
Fold-Activation (vs. 0.10% DMSO) hPPAR-γ ([2]; 300,000 nM): 2.8* fold
Fold-Activation (vs. 0.10% DMSO) rPPAR-α ([3]; 137 nM): 1.3 fold
Fold-Activation (vs. 0.10% DMSO) rPPAR-α ([3]; 412 nM): 1.3 fold
Fold-Activation (vs. 0.10% DMSO) rPPAR-α ([3]; 1,235 nM): 1.3 fold
Fold-Activation (vs. 0.10% DMSO) rPPAR-α ([3]; 3,704 nM): 1.3 fold
Fold-Activation (vs. 0.10% DMSO) rPPAR-α ([3]; 11,111 nM): 1.4 fold
Fold-Activation (vs. 0.10% DMSO) rPPAR-α ([3]; 33,333 nM): 1.3 fold
Fold-Activation (vs. 0.10% DMSO) rPPAR-α ([3]; 100,000 nM): 1.3 fold
Fold-Activation (vs. 0.10% DMSO) rPPAR-α ([3]; 300,000 nM): 1.5 fold
Fold-Activation (vs. 0.10% DMSO) rPPAR-γ ([4]; 137 nM): 0.90 fold
Fold-Activation (vs. 0.10% DMSO) rPPAR-γ ([4]; 412 nM): 0.94 fold
Fold-Activation (vs. 0.10% DMSO) rPPAR-γ ([4]; 1,235 nM): 0.99 fold
Fold-Activation (vs. 0.10% DMSO) rPPAR-γ ([4]; 3,704 nM): 0.97 fold
Fold-Activation (vs. 0.10% DMSO) rPPAR-γ ([4]; 11,111 nM): 0.97 fold
Fold-Activation (vs. 0.10% DMSO) rPPAR-γ ([4]; 33,333 nM): 0.99 fold
Fold-Activation (vs. 0.10% DMSO) rPPAR-γ ([4]; 100,000 nM): 1.0 fold
Fold-Activation (vs. 0.10% DMSO) rPPAR-γ ([4]; 300,000 nM): 2.1* fold
% Inhibition of agonist-stimulated receptor activity vs. 0.10% DMSO, hPPAR-δ ([5]; 137 nM): −3.4%
% Inhibition of agonist-stimulated receptor activity vs. 0.10% DMSO, hPPAR-δ ([5]; 412 nM): −8.9%
% Inhibition of agonist-stimulated receptor activity vs. 0.10% DMSO, hPPAR-δ ([5]; 1,235 nM): −5.5%
% Inhibition of agonist-stimulated receptor activity vs. 0.10% DMSO, hPPAR-δ ([5]; 3,704 nM): −15%
% Inhibition of agonist-stimulated receptor activity vs. 0.10% DMSO, hPPAR-δ ([5]; 11,111 nM): −7.9%
% Inhibition of agonist-stimulated receptor activity vs. 0.10% DMSO, hPPAR-δ ([5]; 33,333 nM): −18%
% Inhibition of agonist-stimulated receptor activity vs. 0.10% DMSO, hPPAR-δ ([5]; 100,000 nM): −6.8%
% Inhibition of agonist-stimulated receptor activity vs. 0.10% DMSO, hPPAR-δ ([5]; 300,000 nM): 11%
inhibition of human PPARs (in words), hPPARδ [5]: does not exhibit similar inhibitory activity
